Experimental data: patent EP2093288A1, “NOVEL DIPEPTIDE-DIGESTING ENZYME, METHOD OF PRODUCING THE SAME, METHOD OF ASSAYING GLYCATED PROTEIN BY USING THE DIPEPTIDE-DIGESTING ENZYME AND REAGENT COMPOSITION TO BE USED THEREIN” (Amano Enzyme Inc., priority 2006, dated 2008)
Read-outs that look alike come from different tables or passages of the source. Non-standard residues stand in square brackets, D forms with d. Residues, ends and D or L forms follow the SMILES beside them. *: point of attachment. Sta = CC(C)C[C@H](N)[C@@H](O)CC(=O)O; Isovaleryl = CC(C)CC(=O)*

Key:
Assay type in all cases: biochemical, Sphingopyxis chilensis No. 0522
[1] = system: dipeptide-degrading enzyme; experiment: Influence of metal ions and the like on enzymatic activity (dipeptide-degrading activity, Example 3 method)
Description: (§1) The dipeptide-degrading activity may be measured by quantifying Fru-Val or histidine formed upon the degradation of Fru-Val-His. The method for quantifying histidine is described below. The amount of enzyme degrading 1 µmol of Fru-Val-His in 1 minute is defined as 1 unit of enzymatic activity (U). The reagents (1), (2), and (3), and a substrate solution used for measuring the activity were prepared as described below.
(§2) Substrate solution: Fru-Val-His (Peptide Institute Inc.) was dissolved in 100 mM of a MOPS buffer (pH 7.0), thus obtaining 40 mM of substrate solution.
0.02 mL of 1.40 mM substrate solution and 0.16 mL of the reagent (1) were accurately dispensed and mixed, and preincubated at 37°C for 5 minutes. Thereafter, 0.02 mL of enzyme solution was accurately added to and mixed with the mixture, and allowed to react at 37°C. As a blank test, 0.02 mL of the reagent (1) was added in place of the enzyme solution. After a lapse of 10 minutes, 0.8 mL of the reagent (3) was accurately added to and mixed with the mixture, and allowed to react at 37°C. After a lapse of 15 minutes, the absorbance at 505 nm was measured, and the dipeptide-degrading activity was calculated according to the calculation formula described below. The enzyme solution was appropriately diluted with the reagent (1) such that ΔABS = (As-Ab) ≤ 0.50 Abs, and used as the sample. The symbols and numerical values in the calculation formula represents the followings. • As: absorbance of enzyme solution • Ab: absorbance of blank solution • ΔABS: As - Ab • 12.88: millimole absorptivity (mmol/L/cm) of quinone pigment at 505 nm • 10: reaction time (min) • 2: coefficient representing that one molecule of quinone pigment is formed from two molecules of H2O2 • 1: light path length (cm) • 1.0: total amount of reaction solution (mL) • 0.02: Amount of enzyme solution used for reaction (mL) • n: enzyme solution dilution ratio
Calculation formula Activity(U/mL) = ΔABS/10/12.88 × 2 × 1 × 1.0/0.02 × n [formula]
The enzymatic activity was measured in the same manner as Example 3, except that the reagent (1) was replaced with various metals and the like at specified concentrations (Table 2) and a 100 mM PIPES buffer (pH 6.2) containing 0.1% Triton X-100.

[2] = system: dipeptide-degrading enzyme; experiment: Reactivity in actual measurement system for glycosylated dipeptide (Example 15 method, reagents E, B, C, absorbance at 555 nm)
Description: A glycosylated dipeptide was measured using a glycosylated hemoglobin β chain dipeptide Fru-Val-His (Peptide Institute Inc.). The reagents B and C were prepared according to the following recipes, and used for the study. Since the specimen was a glycosylated dipeptide, no protease was necessary. Therefore, the reagent E used herein had the same composition with the reagent A except that no protease was used. However, the glycosylated dipeptide may be quantified only with the reagents B and C without using the reagent E. The dipeptide-degrading enzyme used herein is the purified enzyme obtained in Example 6.
40 mM Fru-Val-His was prepared, and diluted with a 100 mM MOPS buffer (pH 7.0), thus making 0.1, 0.2, 0.4, 0.6, and 0.8 mM Fru-Val-His solutions. To 0.01 mL each of the diluting solutions, 0.04 mL of the reagent E was added, and allowed to react at 37°C for 5 minutes. 0.1 mL of the reagent B was added to each of the reaction liquids, and allowed to react at 37°C for 10 minutes. Thereafter, 0.9 mL of the reagent C was added to each of the reaction liquids, and allowed to react at 37°C. The absorbance at 555 nm was measured, and the increase (ΔOD) of the absorbance 5 minutes after initiation of the reaction was determined. […]

[3] = system: dipeptide-degrading enzyme; experiment: Substrate specificity: dipeptide-degrading activity measurement of Example 3 with changed substrate; conditions: substrate changed from Fru-Val-His; 37°C, pH 6.2
Description: as §1, §2
0.02 mL of 1.40 mM substrate solution and 0.16 mL of the reagent (1) were accurately dispensed and mixed, and preincubated at 37°C for 5 minutes. Thereafter, 0.02 mL of enzyme solution was accurately added to and mixed with the mixture, and allowed to react at 37°C. As a blank test, 0.02 mL of the reagent (1) was added in place of the enzyme solution. After a lapse of 10 minutes, 0.8 mL of the reagent (3) was accurately added to and mixed with the mixture, and allowed to react at 37°C. After a lapse of 15 minutes, the absorbance at 505 nm was measured, and the dipeptide-degrading activity was calculated according to the calculation formula described below. The enzyme solution was appropriately diluted with the reagent (1) such that ΔABS = (As-Ab) ≤ 0.50 Abs, and used as the sample. […]

[4] = Conc. 2mM, 100 mM PIPES buffer (pH 6.2), 0.1% Triton X-100, None = 100
[5] = Conc. 1mM, 100 mM PIPES buffer (pH 6.2), 0.1% Triton X-100, None = 100
[6] = Conc. 50mM, 100 mM PIPES buffer (pH 6.2), 0.1% Triton X-100, None = 100

Molecule	Relative activity (%) [1, 4] [%]	Relative activity (%) [1, 5] [%]	also measured
OCCS [2-Mercaptoethanol]	11		
[Ba+2].[Cl-].[Cl-] [BaCl2]		105	
[Ca+2].[Cl-].[Cl-] [CaCl2]		162	
[Cl-].[Cl-].[Co+2] [CoCl2]		676	influences of the metal ions and the like on the enzymatic activity ([1]; summary in words of Table 2): activated
[Cl][Cu][Cl] [CuCl2]		75	
O=C(O)CN(CCN(CC(=O)O)CC(=O)O)CC(=O)O [EDTA]			influences of the metal ions and the like on the enzymatic activity [1]: deactivated; Relative activity (%) ([1]; pH 6.2, 5000 µM): 1%
CC(C)C[C@H](NC(=O)[C@@H](NCC(=O)[C@@H](O)[C@H](O)[C@H](O)CO)C(C)C)C(=O)O [Fru-Val-Leu, fructosyl valyl leucine]			absorbance change converted into the Fru-Val-His concentration ([2]; 0.8 mM substrate, converted using Fig. 7): 0.14 mM; reactivity ([2]; for the 0.8 mM substrate, relative to Fru-Val-His): 18%; activity value of the dipeptide-degrading enzyme for the substrate, relative to that for Fru-Val-His [3]: 4.9%
[Cl-].[Cl-].[Mg+2] [MgCl2]		261	influences of the metal ions and the like on the enzymatic activity ([1]; summary in words of Table 2): activated
[Cl][Mn][Cl] [MnCl2]		137	
O=C(O)CI [Monoiode acetate]			Relative activity (%) ([1]; pH 6.2, 2000 µM): 111%
[Cl][Ni][Cl] [NiCl2]		156	
O=S(=O)(F)Cc1ccccc1 [PMSF]	97		
CC(C)CC(=O)N[C@H](C(=O)N[C@H](C(=O)N[C@@H](CC(C)C)[C@@H](O)CC(=O)N[C@@H](C)C(=O)N[C@@H](CC(C)C)[C@@H](O)CC(=O)O)C(C)C)C(C)C [Pepstatin A] (Isovaleryl-VV[Sta]A[Sta]-OH)			Relative activity (%) ([1]; Conc. 10 µg/ml, 100 mM PIPES buffer (pH 6.2), 0.1% Triton X-100, None = 100): 100%
CCCCCCCCCCCCOS(=O)(=O)O [SDS]	9		
O=P1([O-])OP(=O)([O-])OP(=O)([O-])OP(=O)([O-])OP(=O)([O-])OP(=O)([O-])O1.[Na+].[Na+].[Na+].[Na+].[Na+].[Na+] [Sodium Hexametaphosphate]	4		
O=C(O)CS [Thioglycolic acid]	3		
[Cl-].[Cl-].[Zn+2] [ZnCl2]		257	influences of the metal ions and the like on the enzymatic activity ([1]; summary in words of Table 2): activated
c1cnc2c(c1)ccc1cccnc12 [o-Phenanthroline]	0		
c1ccc(-c2ccccn2)nc1 [α, α'-Dipyridyl]	1		influences of the metal ions and the like on the enzymatic activity ([1]; summary in words of Table 2): deactivated
KCl			Relative activity (%) [1, 6]: 97%
NH4Cl			Relative activity (%) [1, 6]: 85%
NaCl			Relative activity (%) ([1]; pH 6.2, 50000 µM): 98%
